This is an account of results in patent US20080149878A1, “Fluorosurfactants” (priority 2005, published 2008).

The series is described as follows: Determination of the surface tension (Krüss tensiometer K12, ring). The class given is physicochemical. Conditions: 20° C. The text has this:
[table] Further details on the method can be obtained from the publication by the European Commission Classification, Packaging and Labelling of Dangerous Substances in the European Union, Part II—Test Methods, Annex V—Methods for the Determination of Physico-Chemical Properties, Toxicity and Ecotoxicity, Part A, Surface Tension (A.5), January 1997, pages 51-57, and from the OECD Guideline for the Testing of Chemicals, Section 1, Physical-Chemical Properties, Method 115, pages 1-7, adopted: 27, July 95, the contents of which in this respect expressly belong to the disclosure content of the present application.

For the compound `O=S(=O)(O)CCCCCCCCCCOC(F)(F)F` [Example 5, Sodium 10-trifluoromethoxydecane-1-sulfonate], the Surface tension (0.5015 g/l (1.527E−03 mol/l) in deionised water) amounted to 59.95 mN/m, the Surface tension (1.0000 g/l (3.046E−03 mol/l) in deionised water) is on record as 52.55 mN/m and the Surface tension (2.0005 g/l (6.093E−03 mol/l) in deionised water) amounted to 42.61 mN/m.
Take `CCCCCCCCCCS(=O)(=O)[O-].[Na+]` [Decane-sulfonic acid Na salt, sodium decanesulfonate]: the Surface tension was found to be 66.13 mN/m (1.0020 g/l (4.101E−03 mol/l) in deionised water), 57.70 mN/m (2.0015 g/l (8.192E−03 mol/l) in deionised water) and 52.61 mN/m (3.0010 g/l (1.228E−02 mol/l) in deionised water).
